In patent EP1985624A2, “Single step method of radiofluorination of biologically active compounds or biomolecules” (Bayer Schering Pharma Aktiengesellschaft, priority 2007, dated 2008):
pKi: −log10 of the molar value. *1 amine or outer side, *2 acyl side, *3 side chain or, on linkers, in order; H or OH if unused. Where a SMILES comes first, the peptide text is derived from it. [ ]: non-standard residue; d: D form. The star is where a group is joined. X3 = CC(C)[C@H](N[*:1])[C@H](O)CC(=O)[*:2]; Benzoyl(3-CN,4-F) = N#Cc1cc(C(=O)*)ccc1F; Benzoyl(3,4-F2) = O=C(c1ccc(F)c(F)c1)*; NMeH = CN[C@@H](Cc1c[nH]cn1)C(=O)O; X1 = CCC(C)C(CCC(=O)[*:2])N[*:1]; β3hI = CC[C@H](C)[C@H](N)CC(=O)O; Tle = CC(C)(C)[C@H](N)C(=O)O; β3hL = CC(C)C[C@H](N)CC(=O)O; Ava = NCCCCC(=O)O; βAla = NCCC(=O)O; Sar = CNCC(=O)O

Tested on: not listed separately
Experiment: human serum stability of the F-18 labeled peptide (HPLC purity)
Assay type: in vitro ADME
Details: 37°C for 90 min, purity assessed by HPLC (phosphate buffer and TFA mobile phases)
Protocol: To qualify for pre-clinical and clinical use, it is necessary to establish the stability of the compound in human serum. The compound a 70 µL of human serum containing the F-18 labeled peptide (5.89 MBq/mL) was incubated at 37°C for 90 min. An aliquot was withdrawn at various intervals and the purity assessed by HPLC. The purity was evaluated in under two different conditions. Potassium hydrogen phosphate buffer system was used as a mobile phase to measure the stability of attached F-18 label. Column: C-18, Gradient: A: 10mM K2HPO4 pH:9,04; B: 10mM K2HPO4 pH:9,04/ACN 3/ 7; Flow rate: 2 mL, 5% A to 95% B in 7 min. [formula] [formula] [formula]
Trifluoroacetic acid system was used as a mobile phase to measure the stability of the entire molecule. Column: C-18, Gradient: A: 10% CH3CN: 90% H2O, B:90% CH3CN: 10% H2O containing 0.1 % TFA. [formula] [formula] [formula]

| Compound | stability in human serum |
| --- | --- |
| 4-[18]Fluoro-3-cyano-benzoyl-Arg-Ava-Gln-Trp-Ala-Val-NMeGly-His-Sta-Leu-NH2 [IIA-a-1] | stable in human serum |

Target: T1, human bombesin 2 receptor (GRPR) (Homo sapiens, UniProt P30550)
T1 construct: using GRPR-containing cell membranes (Perkin Elmer); purchased Perkin Elmer
T1 sequence (P30550 whole entry): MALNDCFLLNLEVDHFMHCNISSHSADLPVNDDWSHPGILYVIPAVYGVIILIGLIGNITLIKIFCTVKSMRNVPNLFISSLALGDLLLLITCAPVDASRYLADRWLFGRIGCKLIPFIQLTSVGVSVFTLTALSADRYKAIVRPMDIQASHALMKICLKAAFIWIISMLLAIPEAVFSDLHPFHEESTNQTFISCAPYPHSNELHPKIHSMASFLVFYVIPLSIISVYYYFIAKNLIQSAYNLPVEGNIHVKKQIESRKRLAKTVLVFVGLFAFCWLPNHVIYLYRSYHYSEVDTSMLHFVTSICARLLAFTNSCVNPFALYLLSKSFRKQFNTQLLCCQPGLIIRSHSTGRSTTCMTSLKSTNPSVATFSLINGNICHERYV
Experiment: competitive receptor-binding assay (scintillation proximity assay) with 125I-[Tyr4]-Bombesin
Details: not given
Protocol: In vitro binding affinity and specificity of Bombesin analogs for the human bombesin 2 receptor (GRPR) were assessed via a competitive receptor-binding assay using ^125I-[Tyr^4]-Bombesin (Perkin Elmer; specific activity 81.4 TBq/mmol) as GRPR-specific radioligand. The assay was performed based on the scintillation proximity assay (SPA) technology (Carpenter JW et al., Meth Mol Biol 2002; 190:31-49) using GRPR-containing cell membranes (Perkin Elmer) and wheat germ agglutinin (WGA)-coated PVT beads (Amersham Bioscience).
(§1) Briefly, GRPR-containing membranes and WGA-PVT beads were mixed in assay buffer (50 mM Tris/HCl pH 7.2, 5 mM MgCl2, 1 mM EGTA, Complete protease inhibitor (Roche Diagnostics GmbH) and 0.3% PEI) to give final concentrations of approximately 100 µg/ml protein and 40 mg/ml PVT-SPA beads. The ligand ^125I-[Tyr^4]-Bombesin was diluted to 0.5 nM in assay buffer. The test compounds were dissolved in DMSO to give 1 mM stock solutions Later on, they were diluted in assay buffer to 8 pM - 1.5 µM.
The assay was then performed as follows: First, 10 µl of compound solution to be tested for binding were placed in white 384 well plates (Optiplate-384, Perkin-Elmer). At next, 20 µl GRPR/WGA-PVT bead mixture and 20 µl of the ligand solution were added. After 90 minutes incubation at room temperature, another 50 µl of assay buffer were added, the plate sealed and centrifuged for 10 min at 520xg at room temperature. Signals were measured in a TopCount (Perkin Elmer) for 1 min integration time per well. The IC50 was calculated by nonlinear regression using the GraFit data analysis software (Erithacus Software Ltd.). Furthermore, the KI was calculated based on the IC50 for test compound as well as the KD and the concentration of the ligand ^125I-[Tyr^4]-Bombesin. Experiments were done with quadruple samples.
The Binding affinities measured for all the cold F-19 compounds are listed Table 2.
as §1, with “Lateron,” for “Later on,”

| Compound | pKi |
| --- | --- |
| CCC(C)C(CCC(=O)N[C@@H](CC(C)C)C(N)=O)NC(=O)[C@H](Cc1c[nH]cn1)NC(=O)CNC(=O)[C@@H](NC(=O)[C@H](C)NC(=O)[C@H](Cc1c[nH]c2ccccc12)NC(=O)[C@H](CCC(N)=O)NC(=O)CCCCNC(=O)c1ccc(F)c(C#N)c1)C(C)C (stereo partly drawn) [IIB-a-17, 4-[19]-Fluoro-3-cyano-benzoyl-Ava-Gln-Trp-Ala-Val-Gly-His-4-Am,S-MeHpA-Leu-NH2] ({Benzoyl(3-CN,4-F)-Ava}-QWAVGH[X1]L-NH2) | 8.72 |
| CCC(C)C(CCC(=O)N[C@@H](CC(C)C)C(N)=O)NC(=O)[C@H](Cc1c[nH]cn1)N(C)C(=O)CNC(=O)[C@@H](NC(=O)[C@H](C)NC(=O)[C@H](Cc1c[nH]c2ccccc12)NC(=O)[C@H](CCC(N)=O)NC(=O)CCCCNC(=O)c1ccc(F)c(F)c1)C(C)C (stereo partly drawn) [IIB-a-50, 3,4-[19]Difluorobenzoyl-Ava-Gln-Trp-Ala-Val-Gly-NMeHis-4-Am,5-MeHpA-Leu-NH2] ({Benzoyl(3,4-F2)-Ava}-QWAVG[NMeH][X1]L-NH2) | < 7.60 |
| CC(C)C[C@H](NC(=O)C[C@@H](O)[C@@H](NC(=O)[C@H](Cc1c[nH]cn1)NC(=O)CN(C)C(=O)[C@@H](NC(=O)[C@H](C)NC(=O)[C@H](Cc1c[nH]c2ccccc12)NC(=O)[C@H](CCC(N)=O)NC(=O)CCCCNC(=O)c1ccc(F)c(F)c1)C(C)C)C(C)C)C(N)=O [IIB-a-51] ({Benzoyl(3,4-F2)-Ava}-QWAV[Sar]H[X3]L-NH2) | < 7.60 |
| CC(C)C[C@H](NC(=O)[C@H](Cc1ccccc1)NC(=O)[C@H](Cc1c[nH]cn1)N(C)C(=O)CCNC(=O)[C@@H](NC(=O)[C@H](C)NC(=O)[C@H](Cc1c[nH]c2ccccc12)NC(=O)[C@H](CCC(N)=O)NC(=O)CCCCNC(=O)c1ccc(F)c(F)c1)C(C)C)C(N)=O [IIB-a-54] ({Benzoyl(3,4-F2)-Ava}-QWAV[βAla][NMeH]FL-NH2) | 9.40 |
| CC(C)C[C@H](NC(=O)[C@H](Cc1ccccc1)NC(=O)[C@@H](Cc1c[nH]cn1)NC(=O)CCNC(=O)[C@@H](NC(=O)[C@H](C)NC(=O)[C@H](Cc1c[nH]c2ccccc12)NC(=O)[C@H](CCC(N)=O)NC(=O)CCCCNC(=O)c1ccc(F)c(F)c1)C(C)C)C(N)=O [IIB-a-55] ({Benzoyl(3,4-F2)-Ava}-QWAV[βAla][dH]FL-NH2) | 7.72 |

Same assay, conditions: GRPR-containing cell membranes, 125I-[Tyr4]-Bombesin, 90 minutes at room temperature; Table 2, B1 = CO; read-out: Ki

| Compound | pKi |
| --- | --- |
| CC(C)C[C@@H](CC(=O)N[C@@H](CC(C)C)C(N)=O)NC(=O)[C@H](Cc1c[nH]cn1)NC(=O)CCNC(=O)[C@@H](NC(=O)[C@H](C)NC(=O)[C@H](Cc1c[nH]c2ccccc12)NC(=O)[C@H](CCC(N)=O)NC(=O)CCCCNC(=O)c1ccc(F)c(F)c1)C(C)C [IIB-a-56] ({Benzoyl(3,4-F2)-Ava}-QWAV[βAla]H[β3hL]L-NH2) | 7.35 |
| CC[C@H](C)[C@@H](CC(=O)N[C@@H](CC(C)C)C(N)=O)NC(=O)[C@H](Cc1c[nH]cn1)NC(=O)CCNC(=O)[C@@H](NC(=O)[C@H](C)NC(=O)[C@H](Cc1c[nH]c2ccccc12)NC(=O)[C@H](CCC(N)=O)NC(=O)CCCCNC(=O)c1ccc(F)c(F)c1)C(C)C [IIB-a-57] ({Benzoyl(3,4-F2)-Ava}-QWAV[βAla]H[β3hI]L-NH2) | < 7.30 |
| CC(C)C[C@@H](CC(=O)N[C@H](C(N)=O)C(C)(C)C)NC(=O)[C@H](Cc1c[nH]cn1)NC(=O)CCNC(=O)[C@@H](NC(=O)[C@H](C)NC(=O)[C@H](Cc1c[nH]c2ccccc12)NC(=O)[C@H](CCC(N)=O)NC(=O)CCCCNC(=O)c1ccc(F)c(F)c1)C(C)C [IIB-a-58] ({Benzoyl(3,4-F2)-Ava}-QWAV[βAla]H[β3hL][Tle]-NH2) | < 7.30 |
